From patent publication US4215043A, “Bicyclomycin derivatives” (Fujisawa Pharmaceutical Co., Ltd., priority 1975, dated 1980)

Tested on: Escherichia coli strain 1075
Assay: Protecting effect in experimental mice infections (E. coli strain 1075)
Assay type: in vivo
Settings: sc, 120 h, female albino mice 8 g-24 g, infected intraperitoneally with E. coli strain 1075, treated subcutaneously, survival on 5th day after infection, highest dosage tested usually 300 mg/kg
Method: Protecting Effect in Experimental Mice Infections:
For a reference's sake, with regard to antimicrobial activity of the typical compound which falls within the category of the compounds of the formula (I) of the present invention, there are illustrated in vivo tests in which active ingredient are the following compounds.
The test compound against in vivo against the species Escherichia coli was tested using female albino mice weighing 8 g-24 g.
The mice were infected by intraperitoneal route with standardized suitable diluted bacterial suspensions of E. coli strain 1075 and then treated subcutaneously with the test compound.
The ED50 (mg/kg) was determined from the numbers of mice surviving on the 5th day after infection. The highest dosage tested was usually 300 mg/kg.

Row | SMILES | ED50
1 | C=C1CCOC2(C(O)C3(C)COC(C)(C)O3)NC(=O)C1(O)NC2=O (centres unmarked) [Compound 1, 2',3'-O,O-isopropylidenebicyclomycin] | 65 mg/kg
2 | CC(O)(CO)C(O)C12NC(=O)C(O)(NC1=O)C(Br)(CBr)CCO2 (centres unmarked) [Compound 2, 5,11-dibromo-5,11-dihydrobicyclomycin] | 60 mg/kg
